Laboratory results as given in patent US11180484B2, “Pyrazole derivatives as plasma kallikrein inhibitors” (KALVISTA PHARMACEUTICALS LIMITED, priority 2016, dated 2021).
“And” between values parts separate entries of the source, which are not always exact repeats. Identical values can stand only once.

Assays:
[1] = Intrinsic clearance in human liver microsomes; assay type: in vitro ADME; conditions: human liver microsomes 0.5 mg/mL, 5 μM test compound, 37° C.; read-out: Human liver microsome (Clint μL/min/mg protein)
Description: (§1) Rat or human liver microsomes (0.5 mg/mL; Corning) were incubated with 5 μM test compound at 37° C. on a shaking platform (150 rpm). Samples were taken at 0, 6, 12, 18, 24 and 60 min and test compound concentrations were determined by LCMS against a calibration curve.

[2] = target: Human FXIa (Homo sapiens (Human), UniProt P03951); experiment: Determination of the % inhibition / IC50 for FXIa; assay type: biochemical; conditions: for inhibition at 40 µM: 40 μM test compound, read-out: % Inhibition @ 40 μM (human FXIa); for IC50: 25° C., substrate Z-Gly-Pro-Arg-AFC
Sequence of Human FXIa (P03951 388-625): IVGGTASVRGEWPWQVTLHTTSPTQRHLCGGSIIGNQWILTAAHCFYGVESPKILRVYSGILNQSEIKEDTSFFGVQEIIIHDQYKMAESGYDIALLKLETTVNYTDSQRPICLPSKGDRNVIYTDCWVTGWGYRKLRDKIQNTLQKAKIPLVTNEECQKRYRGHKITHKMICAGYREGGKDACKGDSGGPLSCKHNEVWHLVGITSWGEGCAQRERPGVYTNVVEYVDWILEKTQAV
Sequence of Human FXIa (P03951 19-387): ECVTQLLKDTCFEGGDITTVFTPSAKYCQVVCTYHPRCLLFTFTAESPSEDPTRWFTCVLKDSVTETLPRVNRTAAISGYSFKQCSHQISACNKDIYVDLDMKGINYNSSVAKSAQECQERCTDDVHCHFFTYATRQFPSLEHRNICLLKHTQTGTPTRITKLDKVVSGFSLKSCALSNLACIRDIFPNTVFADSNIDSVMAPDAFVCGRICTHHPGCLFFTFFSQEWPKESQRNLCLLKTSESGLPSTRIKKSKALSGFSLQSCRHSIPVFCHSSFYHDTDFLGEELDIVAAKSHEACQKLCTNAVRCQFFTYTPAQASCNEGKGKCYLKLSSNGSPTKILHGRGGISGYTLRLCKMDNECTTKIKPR
Description: FXIa inhibitory activity in vitro was determined using standard published methods (see e.g. Johansen et al., Int. J. Tiss. Reac. 1986, 8, 185; Shori et al., Biochem. Pharmacol., 1992, 43, 1209; Sturzebecher et al., Biol. Chem. Hoppe-Seyler, 1992, 373, 1025). […]

[3] = target: Human KLK1 (Homo sapiens (Human), UniProt P06870); experiment: Determination of the IC50 for KLK1; assay type: biochemical; conditions: 25° C., substrate H-DVal-Leu-Arg-AFC
Sequence of Human KLK1 (P06870 25-262): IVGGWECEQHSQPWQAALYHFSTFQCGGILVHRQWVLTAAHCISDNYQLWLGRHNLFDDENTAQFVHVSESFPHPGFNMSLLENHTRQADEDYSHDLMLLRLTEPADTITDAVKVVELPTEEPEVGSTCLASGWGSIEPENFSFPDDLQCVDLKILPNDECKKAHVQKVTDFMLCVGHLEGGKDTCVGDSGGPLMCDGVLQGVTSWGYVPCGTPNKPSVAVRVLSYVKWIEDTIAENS
Description: (§2) Human KLK1 (Callbiochem) was incubated at 25° C. with the fluorogenic substrate H-DVal-Leu-Arg-AFC and various concentrations of the test compound. Residual enzyme activity (initial rate of reaction) was determined by measuring the change in […] at 410 nm and the IC50 value for the test compound was determined.

[4] = Plasma protein binding (PPB), rapid equilibrium dialysis, rat plasma; assay type: in vitro ADME; conditions: 5 μM test compound, dialysis 5 hrs at 37° C.
[5] = target: plasmin (Homo sapiens (Human), UniProt P00747); experiment: Determination of enzyme selectivity: plasmin; assay type: biochemical; conditions: substrate at Km concentration
Sequence of plasmin (P00747 581-810): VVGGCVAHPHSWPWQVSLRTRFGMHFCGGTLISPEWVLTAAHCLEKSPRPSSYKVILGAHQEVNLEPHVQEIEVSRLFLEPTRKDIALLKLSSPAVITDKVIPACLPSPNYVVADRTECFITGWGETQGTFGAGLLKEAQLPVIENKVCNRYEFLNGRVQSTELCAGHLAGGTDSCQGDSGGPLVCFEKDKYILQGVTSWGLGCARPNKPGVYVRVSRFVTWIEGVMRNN
Sequence of plasmin (P00747 97-580): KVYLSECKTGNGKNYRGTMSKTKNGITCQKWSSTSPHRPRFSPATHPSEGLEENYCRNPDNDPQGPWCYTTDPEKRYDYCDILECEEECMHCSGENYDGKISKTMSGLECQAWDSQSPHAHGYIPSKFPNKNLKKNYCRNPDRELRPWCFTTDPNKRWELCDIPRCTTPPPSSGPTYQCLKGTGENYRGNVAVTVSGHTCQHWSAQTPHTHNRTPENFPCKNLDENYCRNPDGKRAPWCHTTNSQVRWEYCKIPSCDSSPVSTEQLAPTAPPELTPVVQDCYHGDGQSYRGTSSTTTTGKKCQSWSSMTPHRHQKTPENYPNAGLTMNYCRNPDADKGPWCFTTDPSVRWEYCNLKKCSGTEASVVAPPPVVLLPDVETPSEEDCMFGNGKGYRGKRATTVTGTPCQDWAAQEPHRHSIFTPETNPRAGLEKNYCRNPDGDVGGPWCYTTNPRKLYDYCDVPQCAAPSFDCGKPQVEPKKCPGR

[6] = target: Human Factor XIIa (Homo sapiens (Human), UniProt P00748); experiment: Factor XIIa inhibitory activity in vitro; assay type: biochemical; conditions: 25° C., substrate H-DPro-Phe-Arg-AFC; read-out: IC50 (human FXIIa)
Sequence of Human Factor XIIa (P00748 373-615): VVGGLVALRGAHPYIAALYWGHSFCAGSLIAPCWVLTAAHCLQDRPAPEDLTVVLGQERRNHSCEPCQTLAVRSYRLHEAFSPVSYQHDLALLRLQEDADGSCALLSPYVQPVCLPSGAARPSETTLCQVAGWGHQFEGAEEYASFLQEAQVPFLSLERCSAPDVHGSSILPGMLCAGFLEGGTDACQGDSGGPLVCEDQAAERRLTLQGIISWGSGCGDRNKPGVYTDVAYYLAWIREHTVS
Description: as §2, with “Factor XIIa (Enzyme Research Laboratories)” for “KLK1 (Callbiochem)”, “H-DPro-Phe-Arg-AFC” for “H-DVal-Leu-Arg-AFC”

[7] = Plasma protein binding (PPB), rapid equilibrium dialysis, human plasma; assay type: in vitro ADME; conditions: 5 μM test compound, dialysis 5 hrs at 37° C.
[8] = target: thrombin (Homo sapiens (Human), UniProt P00734); experiment: Determination of enzyme selectivity: thrombin; assay type: biochemical; conditions: substrate at Km concentration
Description: (§3) Human serine protease enzymes plasmin, thrombin and trypsin were assayed for enzymatic activity using an appropriate fluorogenic substrate. Protease activity was measured by monitoring the accumulation of liberated fluorescence from the substrate over 5 minutes. The linear rate of fluorescence increase per minute was expressed as percentage (%) activity. The Km for the cleavage of each substrate was determined by standard transformation of the Michaelis-Menten equation.

[9] = target: trypsin; experiment: Determination of enzyme selectivity: trypsin; assay type: biochemical, human; conditions: substrate at Km concentration
Description: as §3

[10] = Intrinsic clearance in rat liver microsomes; assay type: in vitro ADME; conditions: rat liver microsomes 0.5 mg/mL, 5 μM test compound, 37° C.; read-out: rat liver microsome (Clint μL/min/mg protein)
Description: as §1

[11] = Predicted plasma clearance (Clp), well-stirred model, human; assay type: in vitro ADME; conditions: percentage of hepatic blood flow
[12] = Predicted plasma clearance (Clp), well-stirred model, rat; assay type: in vitro ADME; conditions: percentage of hepatic blood flow
[13] = target: T1, Human plasma kallikrein (Homo sapiens (Human), UniProt P03952); experiment: Determination of the IC50 for plasma kallikrein; assay type: biochemical; conditions: 25° C., substrate H-DPro-Phe-Arg-AFC; read-out: IC50 (human PKal)
T1 sequence (P03952 391-638): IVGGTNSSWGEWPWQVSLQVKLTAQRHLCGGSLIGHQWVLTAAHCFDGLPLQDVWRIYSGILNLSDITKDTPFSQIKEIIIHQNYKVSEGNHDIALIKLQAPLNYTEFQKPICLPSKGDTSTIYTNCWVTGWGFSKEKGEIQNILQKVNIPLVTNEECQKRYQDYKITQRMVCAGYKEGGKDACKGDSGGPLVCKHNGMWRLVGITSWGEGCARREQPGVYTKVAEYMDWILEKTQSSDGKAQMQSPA
T1 sequence (P03952 20-390): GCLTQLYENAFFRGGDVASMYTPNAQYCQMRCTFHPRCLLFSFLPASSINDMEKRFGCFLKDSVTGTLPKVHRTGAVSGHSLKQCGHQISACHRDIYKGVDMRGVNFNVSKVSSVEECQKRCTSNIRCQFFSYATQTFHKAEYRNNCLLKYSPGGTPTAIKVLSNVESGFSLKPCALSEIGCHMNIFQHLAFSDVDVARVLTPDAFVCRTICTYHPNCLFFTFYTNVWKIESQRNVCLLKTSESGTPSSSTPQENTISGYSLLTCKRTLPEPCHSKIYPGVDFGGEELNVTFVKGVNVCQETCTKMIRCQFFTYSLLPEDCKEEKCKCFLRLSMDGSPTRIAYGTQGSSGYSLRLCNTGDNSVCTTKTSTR
Description: as §2, with “plasma kallikrein (Protogen)” for “KLK1 (Callbiochem)”, “H-DPro-Phe-Arg-AFC” for “H-DVal-Leu-Arg-AFC”

[14] = target: T1, Human plasma kallikrein; experiment: Determination of the Ki for plasma kallikrein (mixed-model inhibition); assay type: biochemical; conditions: for Ki: human plasma kallikrein, mixed-model inhibition equation

| microsomal CLint at 5 μM [1] [µL/min/mg] | inhibition at 40 µM [2] [%] | IC50 [2] [µM] | IC50 [3] [µM] | fraction unbound at 5 h, 5 μM [4] | IC50 [5] [µM] | IC50 [6] [µM] | fraction unbound at 5 h, 5 μM [7] | IC50 [8] [µM] | IC50 [9] [µM] | microsomal CLint at 5 μM [10] [µL/min/mg] | Predicted in vivo human Clp (% LBF) [11] [% LBF] | Predicted in vivo rat Clp (% LBF) [12] [% LBF] | IC50 [13] [µM] | Ki [14] | Alpha ([14]; parameter of the mixed-model equation indicating mechanism of inhibition) | SMILES |
| --- | --- | --- | --- | --- | --- | --- | --- | --- | --- | --- | --- | --- | --- | --- | --- | --- |
| 29 | 91 | 3.7 | > 4 | 0.11 | 31.2 | > 4 | 0.22 | 19.3 | > 40 | 19 | 21 | 5 | 0.0006 | 0.00026 µM | 1.7 | COCc1nn(Cc2ccc(Cn3ccccc3=O)cc2)cc1C(=O)NCc1c(-n2cnnn2)ccc(OC)c1F [Example 39, N-{[2-Fluoro-3-methoxy-6-(1,2,3,4-tetrazol-1-yl)phenyl]methyl}-3-(methoxymethyl)-1-({4-[(2-oxopyridin-1-yl)methyl]phenyl}methyl)pyrazole-4-carboxamide] |
| 4 | 96 | 0.127 | > 40 | 0.05 | 12 | > 40 | 0.09 | 7.31 | > 40 | 23 | 1 | 3 | 0.0015 | 0.00038 µM and 0.00023 µM |  | COCc1nn(Cc2cnc(N3CCCC3)nc2)cc1C(=O)NCc1c(-n2cnnn2)ccc(OC)c1F [Example 79, N-{[2-Fluoro-3-methoxy-6-(1,2,3,4-tetrazol-1-yl)phenyl]methyl}-3-(methoxymethyl)-1-{[2-(pyrrolidin-1-yl)pyrimidin-5-yl]methyl}pyrazole-4-carboxamide] |
